Laboratory results reported in patent publication US5620676A, “Biologically active ATP analogs” (priority 1995, dated 1997).
Several values for one entry are separate records, joined by “and”; a condition that tells them apart may be missing. Equal entries are not always repeated. Entries after “also recorded” stand apart in the source; their conditions may differ. Where two headings read alike, the source gives them in different places.

Columns and labels:
[1] = biological target: T1, P2Y receptor (turkey erythrocyte membranes) (Meleagris gallopavo, UniProt P49652); test: Stimulation of phospholipase C (inositol phosphate formation) in turkey erythrocyte membranes; assay type: biochemical; conditions: for maximal level (100%) of [3H]inositol phosphate accumulation: with GTPγS and maximal concentration of agonist
T1 construct: from tissue; host or cells: washed turkey erythrocytes, ghosts prepared by hypotonic lysis
Procedure, shortened: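 Erythrocytes were labelled 18-24 h at 37 °C with [3H]myoinositol, and ghosts were made by hypotonic lysis. Ghosts (≈175 μg protein) were incubated 5 min at 30 °C in Hepes buffer pH 7.0 with 1 μM GTPγS and nucleotide analogs. Total [3H]inositol phosphates were purified by anion exchange; K0.5 averaged from 3-8 dose-response curves.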

[2] = tested on: P2Y receptor (aorta endothelium); test: Relaxation of noradrenalin-contracted rabbit aorta; conditions: rabbit aorta; log molar units
Description: Muscular relaxation/contraction: Relaxant responses mediated via P2Y receptors were examined in guinea pig taenia coli, rabbit aorta, and rabbit mesenteric artery, as described by Hoyle et al. (Br. J. Pharmacol., 107, 367-374 (1992a)), Burnstock et al., (Br. J. Pharmacol., 90, 383-391 (1987a)), and Rubino et al., (Eur. J. Pharmacol., 212, 237-240 (1992)). Contractile responses mediated via P2X receptors were examined in the guinea pig urinary bladder and vas deferens, and rabbit saphenous artery, also using standard methods (see Hoyle et al., supra., 1992; Hoyle et al., Br. J. Pharmacol., 99, 617-621 (1990); and Burnstock et al., Br. J. Pharmacol., 90, 111-120 (1987b)).
In FIG. 14, the x-axis is also marked in units of the negative log of the molar concentration of applied putative P2Y receptor agonists and the y-axis is marked in units of the percentage relaxation of the 1 μM noradrenalin-induced contraction of rabbit aorta endothelium. In FIGS. 15-16, the x-axis is marked in units of the negative log of the molar concentration of applied putative p^2X receptor agonists and the y-axis is marked in units of the percentage contraction relative to a standard dose of KCl (i.e., 60 mM), as assessed in guinea pig isolated urinary bladder detrussor muscle (FIG. 15) and guinea pig isolated vas deferens (FIG. 16).

[3] = biological target: P2Y receptor (mesenteric artery); test: Relaxation of rabbit mesenteric artery; conditions: log molar units
Description: Muscular relaxation/contraction: Relaxant responses mediated via P2Y receptors were examined in guinea pig taenia coli, rabbit aorta, and rabbit mesenteric artery, as described by Hoyle et al. (Br. J. Pharmacol., 107, 367-374 (1992a)), Burnstock et al., (Br. J. Pharmacol., 90, 383-391 (1987a)), and Rubino et al., (Eur. J. Pharmacol., 212, 237-240 (1992)).

[4] = biological target: T2, P2X receptor (saphenous artery) (Oryctolagus cuniculus, UniProt G1U3D6); test: Contraction of rabbit saphenous artery; conditions: rabbit saphenous artery; for activation at 10 µM: read-out: response at 10 μM relative to the contraction produced by 1 μM α,MeATP, saph. artery
T2 construct: and rabbit saphenous artery; from tissue; host or cells: rabbit saphenous artery
T2 sequence (G1U3D6 1-399): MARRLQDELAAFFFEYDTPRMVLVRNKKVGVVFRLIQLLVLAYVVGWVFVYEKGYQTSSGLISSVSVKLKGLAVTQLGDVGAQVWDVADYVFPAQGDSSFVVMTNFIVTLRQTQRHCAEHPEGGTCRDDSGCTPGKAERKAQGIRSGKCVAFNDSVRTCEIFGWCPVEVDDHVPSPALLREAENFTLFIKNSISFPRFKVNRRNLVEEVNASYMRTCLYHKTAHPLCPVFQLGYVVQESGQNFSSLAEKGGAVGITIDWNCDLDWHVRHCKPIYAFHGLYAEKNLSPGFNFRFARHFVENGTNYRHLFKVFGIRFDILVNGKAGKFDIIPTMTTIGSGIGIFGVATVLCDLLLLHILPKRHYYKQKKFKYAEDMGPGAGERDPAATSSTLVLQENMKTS
Procedure, shortened: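 Contraction of isolated rabbit saphenous artery, standard organ-bath methods; responses at 10 μM expressed as percentage of contraction produced by 1 μM α,MeATP. Highest analogue concentrations tested were 3-30 […].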

[5] = biological target: T3, adenylyl cyclase linked P2Y receptor (C6 rat glioma cells) (Rattus norvegicus, UniProt Q9EPX4); test: Inhibition of adenylyl cyclase in C6 rat glioma cells; assay type: cell-based; conditions: for selectivity for the adenylyl cyclase linked (C6 cell) receptor: versus phospholipase C linked turkey erythrocyte receptor
T3 construct: endogenous in cells; host or cells: C6 rat glioma cells
Procedure, shortened: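 C6 cells labelled 2 h with [3H]adenine, preincubated 10 min at 37 °C in HEPES-buffered Eagle's medium (pH 7.5) with 200 μM IBMX. Stimulated 10 min with 10 μM isoproterenol plus varied nucleotide concentrations. Stopped with ice-cold 5% trichloroacetic acid.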

[6] = turkey erythrocyte membranes, mean ± S.E.M. for at least 2 determinations, read-out: phosphatidyl inositol metabolism (K0.5, nM) erythrocyte

T1 sequence (P49652 whole entry): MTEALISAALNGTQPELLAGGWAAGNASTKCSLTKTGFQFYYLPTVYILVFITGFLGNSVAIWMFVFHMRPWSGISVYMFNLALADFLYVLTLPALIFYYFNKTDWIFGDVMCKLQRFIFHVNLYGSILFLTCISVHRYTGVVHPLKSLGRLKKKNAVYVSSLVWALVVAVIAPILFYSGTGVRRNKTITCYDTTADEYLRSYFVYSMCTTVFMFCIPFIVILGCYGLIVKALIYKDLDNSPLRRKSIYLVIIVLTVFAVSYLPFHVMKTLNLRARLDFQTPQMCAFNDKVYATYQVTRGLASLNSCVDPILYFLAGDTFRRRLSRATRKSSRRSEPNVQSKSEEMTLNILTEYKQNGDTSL
T3 sequence (Q9EPX4 whole entry): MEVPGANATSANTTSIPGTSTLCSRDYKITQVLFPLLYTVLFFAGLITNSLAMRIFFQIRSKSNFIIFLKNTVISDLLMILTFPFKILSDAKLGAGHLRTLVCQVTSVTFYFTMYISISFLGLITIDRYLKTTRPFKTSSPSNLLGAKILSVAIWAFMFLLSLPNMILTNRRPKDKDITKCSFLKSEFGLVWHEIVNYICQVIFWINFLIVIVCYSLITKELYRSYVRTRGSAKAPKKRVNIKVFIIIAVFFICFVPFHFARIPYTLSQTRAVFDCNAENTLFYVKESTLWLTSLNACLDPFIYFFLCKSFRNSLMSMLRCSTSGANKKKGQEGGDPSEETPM

Structure (SMILES)	activity/potency in words, turkey erythrocyte ([1]; turkey erythrocyte membranes)	EC50 [1, 6]	EC50 ([1]; turkey erythrocyte membranes, read-out: K0.5)	maximal level (100%) of [3H]inositol phosphate accumulation [1]	relaxation pD2, aorta [2]	relaxation pD2, mes. artery [3]	activity/potency in words, saphenous artery [4]	activation at 10 µM [4]	selectivity for the adenylyl cyclase linked (C6 cell) receptor [5]	fold diminished potency upon N6-methylation, turkey erythrocyte ([1]; relative to 2-(5-hexenyl)thio-ATP)	EC50 ([1]; turkey erythrocyte membranes, read from graph, read-out: K0.5)	IC50 ([5]; C6 rat glioma cells, 10 μM isoproterenol, read-out: K0.5 values (in nM) for inhibition of adenylyl cyclase in C6 cells)
N#CCCCCCCSc1nc(N)c2ncn([C@@H]3O[C@H](COP(=O)(O)OP(=O)(O)OP(=O)(O)O)[C@@H](O)[C@H]3O)c2n1 [2-(6-Cyanohexylthio)-ATP, 2-(6-Cyanohexylthio)adenosine-5'-triphosphate]	at least two orders of magnitude more potent; also recorded: about three orders of magnitude more potent	10 ± 5 nM	5 to 30 nM and ~10 nM	6000 cpm	6.9	7.0	at best weak agonists in the saphenous artery	9.2%	3.9 -fold	–	–	–
C=CCCCCSc1nc(NC)c2ncn([C@@H]3O[C@H](COP(=O)(O)OP(=O)(O)OP(=O)(O)O)[C@@H](O)[C@H]3O)c2n1 [N^6 -Me-2-(5-hexenyl)-thio-ATP, N^6 -Me-2-(5-hexenylthio)adenosine 5'-triphosphate]	–	26 ± 7 nM	–	9150 cpm	5.6	6.0	–	1.5%	81 -fold	2.6 -fold	10 nM	0.32 nM
